Reference: US20150246938A1, “NOVEL OLEFIN DERIVATIVE” (SHIONOGI & CO., LTD., priority 2011, published 2015)

Target: T1, recombinant human ACC2 (Homo sapiens, UniProt O00763)
T1 construct: a cDNA encoding human ACC2 (27-2458) was cloned from human kidney cDNA library (Clontech); His-tag (N); made in house; host or cells: Sf-9 insect cells (Bac-to-Bac baculovirus)
Assay: Measurement of inhibitory activity on human ACC2 (MALDI-TOF MS, acetyl CoA to malonyl CoA conversion)
Type: biochemical
Details: not given

T1 sequence (O00763 27-2458): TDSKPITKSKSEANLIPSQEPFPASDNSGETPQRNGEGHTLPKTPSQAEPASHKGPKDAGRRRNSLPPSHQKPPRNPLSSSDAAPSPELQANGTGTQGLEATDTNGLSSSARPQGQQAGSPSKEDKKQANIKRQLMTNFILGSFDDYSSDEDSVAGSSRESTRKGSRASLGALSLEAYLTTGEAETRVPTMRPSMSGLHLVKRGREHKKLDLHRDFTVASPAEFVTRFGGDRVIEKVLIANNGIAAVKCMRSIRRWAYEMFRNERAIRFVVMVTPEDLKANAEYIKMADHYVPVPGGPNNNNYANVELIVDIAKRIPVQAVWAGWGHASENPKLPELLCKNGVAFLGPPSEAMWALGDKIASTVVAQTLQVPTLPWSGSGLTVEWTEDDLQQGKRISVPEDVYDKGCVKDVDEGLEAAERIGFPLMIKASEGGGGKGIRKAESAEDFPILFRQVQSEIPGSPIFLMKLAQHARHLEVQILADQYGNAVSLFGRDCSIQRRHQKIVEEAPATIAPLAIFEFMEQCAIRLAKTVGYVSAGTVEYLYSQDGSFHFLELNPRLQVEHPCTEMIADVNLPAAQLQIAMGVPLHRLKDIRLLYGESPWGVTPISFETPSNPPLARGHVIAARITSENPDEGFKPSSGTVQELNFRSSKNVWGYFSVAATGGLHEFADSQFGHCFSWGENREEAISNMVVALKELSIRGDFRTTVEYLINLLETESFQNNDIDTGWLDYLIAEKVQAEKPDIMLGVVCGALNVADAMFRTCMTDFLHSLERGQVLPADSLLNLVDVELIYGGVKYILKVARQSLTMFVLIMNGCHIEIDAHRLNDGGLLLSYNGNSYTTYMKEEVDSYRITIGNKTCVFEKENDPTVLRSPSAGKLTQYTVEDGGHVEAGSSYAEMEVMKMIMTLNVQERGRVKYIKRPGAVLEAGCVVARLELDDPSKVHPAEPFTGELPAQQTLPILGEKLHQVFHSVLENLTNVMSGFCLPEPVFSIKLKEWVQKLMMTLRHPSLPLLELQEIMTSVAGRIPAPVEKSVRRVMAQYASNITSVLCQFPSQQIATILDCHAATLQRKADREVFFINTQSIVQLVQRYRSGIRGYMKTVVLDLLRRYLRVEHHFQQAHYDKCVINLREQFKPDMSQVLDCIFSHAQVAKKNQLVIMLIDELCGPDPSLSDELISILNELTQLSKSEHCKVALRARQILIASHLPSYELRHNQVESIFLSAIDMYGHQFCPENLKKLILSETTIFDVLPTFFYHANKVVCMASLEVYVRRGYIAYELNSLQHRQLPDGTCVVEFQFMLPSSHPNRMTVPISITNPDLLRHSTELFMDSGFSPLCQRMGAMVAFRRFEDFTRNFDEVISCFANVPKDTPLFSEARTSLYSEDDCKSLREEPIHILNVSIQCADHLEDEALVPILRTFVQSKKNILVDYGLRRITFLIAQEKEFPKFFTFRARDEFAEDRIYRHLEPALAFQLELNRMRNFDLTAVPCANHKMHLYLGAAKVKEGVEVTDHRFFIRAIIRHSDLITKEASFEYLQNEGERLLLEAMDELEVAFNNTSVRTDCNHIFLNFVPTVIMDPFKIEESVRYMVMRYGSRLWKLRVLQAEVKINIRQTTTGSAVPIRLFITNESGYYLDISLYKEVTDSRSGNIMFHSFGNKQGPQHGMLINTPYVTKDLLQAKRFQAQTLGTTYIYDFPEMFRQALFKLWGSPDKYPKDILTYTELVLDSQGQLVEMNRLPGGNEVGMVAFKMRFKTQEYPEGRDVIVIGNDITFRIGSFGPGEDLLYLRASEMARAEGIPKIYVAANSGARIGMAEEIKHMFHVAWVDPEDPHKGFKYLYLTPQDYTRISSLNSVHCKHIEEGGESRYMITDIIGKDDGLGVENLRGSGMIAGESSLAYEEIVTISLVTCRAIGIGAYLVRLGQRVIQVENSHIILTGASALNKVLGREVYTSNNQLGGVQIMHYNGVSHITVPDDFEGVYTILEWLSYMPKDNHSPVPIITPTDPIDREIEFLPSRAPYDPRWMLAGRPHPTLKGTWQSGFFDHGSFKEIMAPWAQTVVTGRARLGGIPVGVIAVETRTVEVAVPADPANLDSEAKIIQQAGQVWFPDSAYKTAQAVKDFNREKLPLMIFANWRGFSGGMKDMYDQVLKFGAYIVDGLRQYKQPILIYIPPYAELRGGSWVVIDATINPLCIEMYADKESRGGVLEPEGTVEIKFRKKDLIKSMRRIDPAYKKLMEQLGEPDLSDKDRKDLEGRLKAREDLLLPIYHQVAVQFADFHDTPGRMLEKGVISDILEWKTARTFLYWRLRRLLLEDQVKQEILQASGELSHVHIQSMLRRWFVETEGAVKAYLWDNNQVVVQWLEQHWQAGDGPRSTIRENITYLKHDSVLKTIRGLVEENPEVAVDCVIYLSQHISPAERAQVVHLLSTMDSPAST

IC50 [nM]	Structure (SMILES)
2300	CCCc1ccc(Oc2ccc(/C=C/[C@H](C)NC(C)=O)cn2)c(-c2ccccc2)c1 [Compound I-408]
29	CC(=O)N[C@@H](C)/C=C/c1ccc(Oc2ccc(N3CCCCC3)cc2Cl)nc1 [Compound I-383]
3700	CC(=O)N[C@@H](C)/C=C/c1cnc(Oc2ccc(OCC3CC3O)cc2Cl)nc1 (stereo partly shown) [Compound I-379]
190	CCCc1ccc(Oc2ccc(/C=C/[C@H](C)NC(C)=O)cn2)cc1C#N [Compound I-404]
40	CC(=O)N[C@@H](C)/C=C/c1ccc(Oc2ccc3nc(C)sc3c2)nc1 [Compound I-425]
36	CC(=O)N[C@@H](C)/C=C/c1ccc(Oc2ccc(-c3nc4ccccc4o3)cc2Cl)nc1 [Compound I-414]
68	CC(C)C(F)(F)c1ccc(Oc2ccc(/C=C/[C@H](C)NC(N)=O)cn2)c(Cl)c1 [Compound I-399]
55	CC(=O)N[C@@H](C)/C=C/c1ccc(Oc2ccc(C(F)(F)C(C)C)cc2Cl)nc1 [Compound I-396]

Same assay, conditions: inhibition activity on human ACC2, Table 79; read-out: IC50

IC50 [nM]	Structure (SMILES)
83	CCOc1cc(Cl)cc(Oc2ccc(/C=C/[C@H](C)NC(C)=O)cn2)c1 [Compound I-45]
150	C[C@@H](/C=C/c1cnc(Oc2ccc(OCC3CC3)cc2Cl)s1)NC(=O)CC(N)=O [Compound I-116]
950	CC(=O)N[C@@H](C)/C=C/c1cnc(N2CCc3cc(OCC4CC4)ccc32)s1 [Compound I-59]
970	CC(C)COCC(=O)N[C@@H](C)/C=C/c1cnc(Oc2ccc(OCC3CC3)cc2Cl)s1 [Compound I-103]
830	CC(=O)N[C@@H](C)/C=C/c1cnn(Cc2ccc(OCC3CC3)cc2Cl)c1 [Compound I-63]
440	C[C@@H](/C=C/c1cnc(Oc2ccc(OCC3CC3)cc2Cl)s1)NC(=O)CCCCCCNC(=O)OC(C)(C)C [Compound I-106]
48	C[C@@H](/C=C/c1cnc(Oc2ccc(OCC3CC3)cc2Cl)s1)NC(=O)Cc1cccnc1 [Compound I-77]
1100	CCOc1ccc(OCc2ccc(/C=C/[C@H](C)NC(C)=O)cn2)c(Cl)c1 [Compound I-35]
160	C[C@@H](/C=C/c1cnc(Oc2ccc(OCC3CC3)cc2Cl)s1)NC(=O)CC(F)(F)F [Compound I-82]
440	C[C@@H](/C=C/c1cnc(Oc2ccc(OCC3CC3)cc2Cl)s1)NC(=O)CCCN1CCCC1=O [Compound I-86]
140	COC(=O)CCCC(=O)N[C@@H](C)/C=C/c1cnc(Oc2ccc(OCC3CC3)cc2Cl)s1 [Compound I-94]
53	C[C@@H](/C=C/c1cnc(Oc2ccc(OCC3CC3)cc2Cl)s1)NC(=O)CC#N [Compound I-73]
57	C[C@@H](/C=C/c1cnc(Oc2ccc(OCC3CC3)cc2Cl)s1)NC(=O)C1(C(N)=O)CC1 [Compound I-74]
6.9	CC(=O)N[C@@H](C)/C=C/c1ccc(Oc2ccc(OCC3CC3)cc2Cl)nc1 [Compound I-14]

Same assay, conditions: inhibition activity on human ACC2, Table 80; read-out: IC50

IC50 [nM]	Structure (SMILES)
320	CCCOc1ccc(Oc2ncc(/C=C/[C@H](C)NC(=O)C3(C#N)CC3)s2)c(Cl)c1 [Compound I-162]
18	C[C@@H](/C=C/c1cnc(Oc2ccc(OCC3CC3)cc2Cl)s1)NC(=O)C(F)F [Compound I-177]
73	C[C@@H](/C=C/c1cnc(Oc2ccc(OCC3CC3)cc2Cl)s1)NC(=O)c1ccnc(NCCCN2CCCC2=O)c1 [Compound I-246]
630	Cc1ccc(-c2cc(C(=O)N[C@@H](C)/C=C/c3cnc(Oc4ccc(OCC5CC5)cc4Cl)s3)ccn2)o1 [Compound I-137]
580	C[C@@H](/C=C/c1cnc(Oc2ccc(OCC3CC3)cc2Cl)s1)NC(=O)c1cccc(C#N)c1 [Compound I-155]
66	C[C@@H](/C=C/c1cnc(Oc2ccc(OCC3CC3)cc2Cl)s1)NC(=O)c1ccnc(-c2ncco2)c1 [Compound I-139]
600	C[C@@H](/C=C/c1cnn(Cc2ccc(OCC3CC3)cc2Cl)c1)NC(=O)C1CC1 [Compound I-172]
260	COc1cc(C(=O)N[C@@H](C)/C=C/c2cnc(Oc3ccc(OCC4CC4)cc3Cl)s2)ccn1 [Compound I-157]
42	CCOc1ccc(Oc2ccc(/C=C/[C@H](C)NC(=O)C(F)F)cn2)c(Cl)c1 [Compound I-179]
880	CC(=O)c1ccc(C(=O)N[C@@H](C)/C=C/c2cnc(Oc3ccc(OCC4CC4)cc3Cl)s2)s1 [Compound I-148]

Same assay, conditions: inhibition activity on human ACC2, Table 82; read-out: IC50

IC50 [nM]	Structure (SMILES)
42	CC(=O)N[C@@H](C)/C=C/c1ccc(Oc2ccc(C3=CCCC3)cc2Cl)nc1 [Compound I-351]
35	CC(=O)N[C@@H](C)/C=C/c1ccc(Oc2ccc(C(C)(F)F)cc2Cl)nc1 [Compound I-328]
280	CCCc1ncc(Oc2ccc(/C=C/[C@H](C)NC(C)=O)cn2)cc1C [Compound I-370]
960	CCCc1cc(C)c(Oc2ccc(/C=C/[C@H](C)NC(C)=O)cn2)cn1 [Compound I-323]
130	CC(=O)N[C@@H](C)/C=C/c1ccc(Oc2ccc(OS(=O)(=O)C(F)(F)F)cc2Cl)nc1 [Compound I-331]
67	CCNC(=O)c1cc(C(=O)N[C@@H](C)/C=C/c2cnn(Cc3ccc(OCC4CC4)cc3F)c2)ccn1 [Compound I-318]

Same assay, conditions: inhibition activity on human ACC2, Table 84; read-out: IC50

IC50 [nM]	Structure (SMILES)
1500	CC(=O)N[C@@H](C)/C=C/c1ccc(Oc2ccc3nc(C)oc3c2)nc1 [Compound I-461]
8.9	CC(=O)N[C@@H](C)/C=C/c1ccc(Oc2ccc3nc(C(C)C)oc3c2)nc1 [Compound I-500]
43	CCCC(F)(CC)c1ccc(Oc2ccc(/C=C/[C@H](C)NC(C)=O)cn2)c(Cl)c1 (stereo partly shown) [Compound I-467]
27	CC(=O)N[C@@H](C)/C=C/c1ccc(Oc2ccc(C3=CCC4(CC3)CC4)cc2Cl)cn1 [Compound I-513]
23	CC(=O)N[C@@H](C)/C=C/c1ccc(Oc2ccc3nc(C)sc3c2C#N)nc1 [Compound I-509]
260	CC(=O)N[C@@H](C)/C=C/c1cnc(Oc2ccc(OCC3CC3)cc2Cl)c(C#N)c1 [Compound I-445]
58	CCC(CC)c1ccc(Oc2ccc(/C=C/[C@H](C)NC(C)=O)cn2)c(Cl)c1 [Compound I-436]
240	C/C=C(\CC)c1ccc(Oc2ccc(/C=C/[C@H](C)NC(C)=O)cn2)c(Cl)c1 [Compound I-476]

Same assay, conditions: inhibition activity on human ACC2, untitled table (Table 81); read-out: IC50

IC50 [nM]	Structure (SMILES)
600	CC(=O)NC(C)(C)/C(C)=C/c1ccc(Oc2ccc(OCC3CC3)cc2Cl)nc1 [Compound I-290]
630	CC(=O)N[C@@H](C)/C=C/c1ccc(Oc2ccc(OCCOC3CCCCO3)cc2Cl)nc1 (stereo partly shown) [Compound I-303]
450	COc1ccc(F)c(Oc2ccc(/C=C/[C@H](C)NC(C)=O)cn2)c1 [Compound I-258]
120	CCCc1ccc(Oc2ccc(/C=C/[C@H](C)NC(C)=O)cn2)cn1 [Compound I-269]
150	CCOc1cc(F)cc(Oc2ccc(/C=C/[C@H](C)NC(C)=O)cn2)c1 [Compound I-276]
660	CC(=O)N[C@@H](C)/C=C/c1cnn(Cc2ccc(OCC3CC3)c(Cl)c2Cl)c1 [Compound I-262]
96	CC(=O)N[C@@H](C)/C=C/c1cnc(Oc2ccc(NC3CCCC3)c(Cl)c2)nc1 [Compound I-285]
230	CC(=O)N[C@@H](C)/C=C/c1ccc(Oc2cc(F)cc(OC(C)C)c2)nc1 [Compound I-277]
36	CCN(CC)c1ccc(Oc2ccc(/C=C/[C@H](C)NC(C)=O)cn2)c(Cl)c1 [Compound I-288]
